For this assay, the system named is BRD2BD1, BRD2BD2, BRD3BD1, BRD3BD2, BRD4BD1, BRD4BD2 EGFP reporters. Description: EGFP/mCherry reporter assay across individual BET bromodomains. Format: cell-based, human. The following applies: BRD2/3/4 BD1 and BD2 reporter cells, 5 h.

As for `Cc1sc2c(c1C)C(c1ccc(Cl)cc1)=N[C@@H](CC(=O)NCCCCCCCCNC(=O)COc1cccc3c1C(=O)N(C1CCC(=O)NC1=O)C3=O)c1nnc(C)n1-2` (stereo partly shown) [dBET6], the “activity profile across BET bromodomain reporters” value is recorded as “activity on most bromodomains”.
